Laboratory results published in US9610255B2, “Lycopene and resveratrol dietary supplement” (HSIEHS BIOTECH (SINGAPORE) PTE LTD, priority 2009, dated 2017).

Assays:
[1] = cited from earlier work
[2] = Distribution in the body after oral intake
[3] = human, in vivo, po
[4] = Di Mascio P., 1989; cited from earlier work
prostatic carcinoma = settings: 47,000 participants over 6 years (Giovannucci, E., 1995); cited from earlier work

| share of adsorbed compound that goes to the prostate and other internal organs [3] | SMILES | solubility in organic solvents such as ethanol and acetone [1] | solubility in water [1] | main distribution in the body [2] | activity in quenching oxygen-singlet among all carotenoids including β-carotene [4] | lowering of incidence of prostatic carcinoma in the lycopene group (prostatic carcinoma) |
| --- | --- | --- | --- | --- | --- | --- |
|  | Oc1ccc(/C=C/c2cc(O)cc(O)c2)cc1 [resveratrol] | soluble | slightly soluble | heart, circulation system, along respiratory tract and skin |  |  |
| over 90% | CC(C)=CCC/C(C)=C/C=C/C(C)=C/C=C/C(C)=C/C=C/C=C(C)/C=C/C=C(C)/C=C/C=C(\C)CCC=C(C)C [lycopene] |  | water-insoluble |  | highest activity | over 30% |
